From publication PMC8224775, “Five Tetramic Acid Derivatives Isolated from the Iranian Fungus Colpoma quercinum CCTU A372” (Biomolecules, 2021)
Where two headings read alike, the source gives them in different places.

System: endocervical adenocarcinoma KB-3.1
Assay: 5-day MTT cytotoxicity assay
Format: cell-based, human
Settings: KB-3.1, 5-day MTT assay
Experimental: Cytotoxicity of compounds 1‒5 was initially determined against two cancer cell lines (mouse fibroblasts L-929 and human endocervical adenocarcinoma KB-3.1) by using a 5-day MTT assay according to an established procedure.
In 96-well flat-bottom microtiter plates, cell lines with serial dilution of the test compounds (final range: 37 to 0.6 × 10^−3 µg/mL) were incubated for five days. After five days, the cells were dyed using 3-(4,5-dimethyl-2-thiazolyl)-2,5-diphenyl-2H-tetrazolium bromide (MTT), which is only converted to its purple formazan derivative by living cells. The half-maximum inhibitory concentration (IC50 in µM) was calculated via the colorimetric method in a microplate reader using absorption at 595 nm. In addition, when an inhibition with an IC50 < 50 µM was observed, other cell lines were subjected to the test compounds to evaluate their further cytotoxicity: PC-3 (human prostate adenocarcinoma), SK-OV-3 (human ovary adenocarcinoma), MCF-7 (human breast adenocarcinoma), A-431 (human squamous carcinoma), and A549 (human lung carcinoma). A detailed procedure, including the colorimetric method to determine the cell viability, can be found in the SI.
Protocol: Cytotoxicity Assay
The assay was co nducted in 9 6-well flat -botto m microtiter plates using the parameters summarised in T able S2 and as described in [S2]. Cell l ines L-929 and KB-3.1 were incubated at 37 °C under 10 % CO2 in Gibco™ DMEM medium (T her mo Fisher Scientific, Waltham, M A, USA) supplemented with 10 % FBS. A microtiter plate was filled wit h 120 μ L o f this suspensio n (50,000/mL) in each well. Seperatel y, a nother microti ter plate wa s filled wit h 100 μL of gro wth medium in each well. Then, 50 μ L of the test compound solutions (1 mg/mL) were given to wells of the first column in two replicates (one compound per row). Cells without additives and MeOH were used as nega tive controls. Starting from the first column, 50 μ L of the solutions were gradually transferred to the next column, the contents thoroughly mixed, and 50 μL transferred to the following column. This created a serial dilution of the test compounds ranging from 333 μ g/mL to 1.9×10-3 μg/ mL. T he re mai ni ng 50 μ L after column twelve were discarded. From this microtiter plate, 60 μ L of the solutions fro m 111 μ g/mL to 1.9×10-3 μg/mL we r e give n to t he firs t p late co ntai ni ng 1 2 0 μ L of the cell suspensions (i.e. the highest co ncentration 333 μ g/ mL wa s no t used). T his resul ted in fi nal compo und concentratio ns rangi ng fro m 37 μ g/mL to 0.6×10-3 μg/ mL. After 5 days o f incubatio n under the aforementioned incubatio n conditions, the half maximu m inhibitory co ncentrations (IC50) were deter mined using a colorimetric tetrazolium d ye MT T assa y [S3]. For this, 20 μ L of a 5 mg/mL solution of 3-(4,5-dimethyl-2 -thiazolyl) -2,5-diphenyl-2H-tetrazolium br omide (MTT) were added to each well and incubated for two hours at 37 °C. T hen, the microtiter plate was ce ntrifuged (3,000 rpm, 5 min) and the supernatant removed by holding the plate upside-down and gentle shaking. Afterwards, the wells were washed using 100 μ L of phosphate buffered saline (PBS). T he plate was a gain ce ntrifuged a nd the supernata nt re mo ved as described before.
T hen, 1 0 0 μ L of an isopropanol:HCl solution (1L isopropanol+4 mL HCl 37 % w/v) were added to the wells. After incubating for 10 min at ambient temperature, the absorption of the wells at 595 nm was measured with an Infinite® 200 Pro microplate reader (TECAN, Männedorf, Schweiz). The absorption values of the cells without additives were averaged and set to 100 % cell viability. Then, the means of absorption of the two compound replicates were set in relation to the blank media. T hese percentage values were plotted against the concentratio n range (37 μ g/mL to 0.6×10−3 μg/ mL). T he IC50 value was r ead fro m the plot (in μ g/ mL) a nd the uni ts conversed […]
to μM. […]

Structure (SMILES)	IC50	IC50 (Homo sapiens, KB 3-1, 120 h, read-out: IC50) [µM]
CC(=O)OC(C(=O)O)C(C)C1C(C)=CC2CC(C)CCC2C1(C)C(O)=C1C(=O)C(C)N(C)C1=O (centres unmarked) [compound 1, Colposetin A]	not active	–
CCC(C(=O)O)C1C(C)=CC2CC(C)CCC2C1(C)C(O)=C1C(=O)C(C)N(C)C1=O (centres unmarked) [compound 2, Colposetin B]	–	5.7
CC1=CC2CC(C)CCC2C2(C)C(=O)OC(C(=O)O)C(C)C12 (centres unmarked) [compound 3, Colposetin C]	not active	–
CC(C=CCC(C)CCC=C(C)C(=O)C1=C(O)C(C)N(C)C1=O)=CC(C)C(O)C(=O)O (centres unmarked) [compound 4, Colpomenoic acid A]	not active	–
CC(C=CCC(C)C=CC=C(C)C(=O)C1=C(O)C(C)N(C)C1=O)=CC(C)C(O)C(=O)O (centres unmarked) [compound 5, Colpomenoic acid B]	not active	–
